Consider 15 compounds from patent US20220081409A1, “PDE9 INHIBITOR AND USE THEREOF” (NANJING TRANSTHERA BIOSCIENCES CO., LTD., priority 2019, published 2022).

Structures are written as SMILES.

The target of one data set is T1, PDE9A2 enzyme (Homo sapiens, UniProt O76083).
T1 construct: purchased BPS 60090
The data set is described as follows: PDE9 enzymatic evaluation. Format: biochemical. The settings on record: fluorescence reading 480 nm/535 nm. The procedure: Experimental Example 1: PDE9 Enzymatic Evaluation
Test samples: the compounds disclosed herein, prepared according to the corresponding examples of the present invention.
Preparation of the compounds: Compounds were formulated into 10 mM compound stock solution in DMSO for long term storage. The obtained compound stock solution was 100-fold diluted with DMSO to give 100 μM compound mother liquor, which was 3-fold diluted with DMSO to give 8-10 concentration gradients of diluted compound mother liquor (100×).
Incubation with compound: Diluted compound mother liquor was pipetted into a 384-well plate using an ultramicro-liquid pipetting system (Echo); 200 nL of the diluted compound mother liquor and 10 μL of PDE9A2 enzyme solution were added to each compound well; after centrifugation at 1000 rpm for 1 min, the mixtures were incubated at room temperature for 15 min. Subsequently, 10 μL of the substrate mixture was added, and after centrifugation at 1000 rpm for 1 min, the resulting mixture was incubated at room temperature with oscillating for 30 min. Finally, stop solution was added to end the reaction, and the resulting reaction system was incubated at room temperature with oscillating for 60 min. In the maximum reading well (Max), the compound was replaced by solvent; in the minimum reading well (Min), the compound and the enzyme solution were replaced by solvent.
Detection: the fluorescence readings (F) at 480 nm/535 nm were detected using a microplate reader.
Calculation: The inhibition rate was calculated according to the following formula and IC50 was fitted using GraphPad Prism 5.0: […]

Data set [1] is described as follows: Liver microsomal stability in rat liver microsomes. The following applies: 0.5 mg protein/mL, 1 μM compound, 37° C. Format: in vitro ADME. On the procedure: Experimental Example 2: Evaluation of Liver Microsomal Stability of Compounds Disclosed Herein
Test samples: the compounds disclosed herein and the compound I-8 of international patent application WO2017019723A1 (prepared by referring to the examples for synthesis in WO2017019723A1) having the following structural formula: […]
An appropriate amount of the compound was precisely weighed out and dissolved in DMSO to prepare a 5.0 mM stock solution. The 5.0 mM stock solution was diluted to 1.0 mM with DMSO, and then diluted with water to 10 μM compound working solution for later use (DMSO content in the reaction system: 0.1% v/v).
• (1) The liver microsomes (20 mg protein/mL) were taken out from a −80° C. refrigerator, pre-incubated on a 37° C. water bath thermostatic oscillator for 3 min, and thawed for use. • (2) A mixed solution of the incubation system (without compound and D-NADPH) was prepared according to “composition of the experimental incubation system” described above, and pre-incubated on a 37° C. water bath thermostatic oscillator for 2 min. • (3) Control group (without D-NADPH): 30 μL of water and 30 μL of compound working solution (10 μM) were added to 240 μL of the mixed solution of the incubation system in step (2), and the mixture was vortexed for 30 s and mixed well; the total volume of the mixture was 300 μL; the sample was duplicated. The mixture was placed on a 37° C. water bath thermostatic oscillator for incubation, and timing was started; the sampling was conducted at 0 min and 60 min. • (4) Sample group: 70 μL of […] solution (10 mM) and 70 μL of compound working solution (10 μM) were added to 560 μL of the mixed solution in step (2), and the total volume of the mixture was 700 μL; the mixture was vortexed for 30 s and mixed well; the sample was duplicated. The mixture was placed on a 37° C. water bath thermostatic oscillator for incubation, and timing was started; the sampling was conducted at 0 min, 5 min, 10 min, 20 min, 30 min and 60 min. • (5) The mixture was vortexed for 3 min, and centrifuged at 4000 rpm for 10 min. • (6) 50 μL of the supernatant was taken and added to 150 μL of water, and the resulting mixture was vortexed and mixed well before LC/MS/MS analysis.
The half-life (t1/2) and clearance (Cl) were calculated using the following first-order kinetic formula:
Vd=1/protein content in liver microsomes
Note: k denotes the slope of the logarithm of the remaining amount of a compound vs. time, Vd denotes apparent volume of distribution, and C0 denotes compound concentration at 0 h.
Experiment on Stability of the Compounds Disclosed Herein in Rat Liver Microsomes
On the technique in general: Liver microsomes are a subcellular fraction often used to study metabolism.

For data set [2], the target named is T2, human PDE9 (Homo sapiens, UniProt O76083). The following applies: background statement; cited from earlier work.
T2 sequence (O76083 whole entry): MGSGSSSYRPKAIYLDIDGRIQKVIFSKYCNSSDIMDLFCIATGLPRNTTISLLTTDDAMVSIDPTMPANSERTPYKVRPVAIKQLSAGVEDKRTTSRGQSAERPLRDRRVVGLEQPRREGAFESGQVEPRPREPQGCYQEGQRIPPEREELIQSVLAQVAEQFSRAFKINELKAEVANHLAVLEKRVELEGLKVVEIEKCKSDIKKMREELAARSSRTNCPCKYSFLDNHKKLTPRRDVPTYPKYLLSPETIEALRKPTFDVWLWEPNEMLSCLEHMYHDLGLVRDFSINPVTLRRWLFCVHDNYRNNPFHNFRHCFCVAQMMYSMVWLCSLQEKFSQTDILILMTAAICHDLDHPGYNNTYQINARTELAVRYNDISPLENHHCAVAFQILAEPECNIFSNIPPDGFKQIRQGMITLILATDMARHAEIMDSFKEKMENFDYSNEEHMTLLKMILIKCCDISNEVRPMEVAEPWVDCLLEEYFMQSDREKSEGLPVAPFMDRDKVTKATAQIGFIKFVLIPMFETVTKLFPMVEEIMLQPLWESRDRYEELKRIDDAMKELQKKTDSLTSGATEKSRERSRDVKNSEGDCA
Data set [3] has as its target T2, human PDE9. The following applies: substrate of PDE9, background statement; read-out: binding constant (Km); cited from earlier work.

T1 sequence (O76083 1-533 isoform O76083-2): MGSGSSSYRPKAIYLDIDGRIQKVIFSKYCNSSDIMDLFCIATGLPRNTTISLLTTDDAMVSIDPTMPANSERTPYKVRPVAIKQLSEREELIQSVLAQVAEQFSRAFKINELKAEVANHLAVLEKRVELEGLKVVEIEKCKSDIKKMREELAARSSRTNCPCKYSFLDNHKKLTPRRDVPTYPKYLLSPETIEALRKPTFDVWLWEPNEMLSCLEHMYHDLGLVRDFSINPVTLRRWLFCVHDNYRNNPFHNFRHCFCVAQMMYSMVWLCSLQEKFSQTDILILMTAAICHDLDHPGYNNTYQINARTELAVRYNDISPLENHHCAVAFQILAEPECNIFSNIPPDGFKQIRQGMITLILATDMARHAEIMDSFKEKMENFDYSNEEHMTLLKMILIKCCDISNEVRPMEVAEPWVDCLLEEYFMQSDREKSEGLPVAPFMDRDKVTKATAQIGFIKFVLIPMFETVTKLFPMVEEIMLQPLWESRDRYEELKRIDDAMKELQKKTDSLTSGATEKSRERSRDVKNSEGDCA

Turning to `CNC(=O)c1ccc2[nH]c(=O)c(C#N)c(N3CCC4(CC3)CC4)c2c1` [Compound 96, 3-cyano-N-methyl-2-oxo-4-(6-azaspiro[2.5]octan-6-yl)-1,2-dihydroquinoline-6-carboxamide], the midpoint of inhibition on PDE9A2 enzyme, the IC50, lay at 5 nM. Besides, in data set [1], the half-life (in general, the time needed for the level to fall by half in the phase considered) at 1 μM was 193 min and the microsomal CLint (in general, the capacity of the preparation to metabolise the compound, expressed as a volume cleared per time) at 1 μM amounted to 7.2 µL/min/mg. For `CCc1ccc2[nH]c(=O)c(C#N)c(N3CCC(C)(OC)CC3)c2c1` [Compound 107, 6-ethyl-4-(4-methoxy-4-methylpiperidin-1-yl)-2-oxo-1,2-dihydroquinoline-3-carbonitrile], on PDE9A2 enzyme, 8 nM corresponded to half-maximal inhibition (IC50). For the compound `COC1(C)CCN(c2c(C#N)c(=O)[nH]c3ccc(C(C)(C)O)cc23)CC1` [Compound 109, 6-(2-hydroxypropan-2-yl)-4-(4-methoxy-4-methylpiperidin-1-yl)-2-oxo-1,2-dihydroquinoline-3-carbonitrile], half-maximal inhibition on PDE9A2 enzyme (IC50) required 15 nM. In data set [1], the half-life at 1 μM worked out at 462 min and the microsomal CLint at 1 μM worked out at 3 µL/min/mg. The like results for `COC1(C)CCN(c2c(C#N)c(=O)[nH]c3ccc(C(O)C4CC4)cc23)CC1` (centres unmarked) [Compound 130, 6-(cyclopropyl(hydroxy)methyl)-4-(4-methoxy-4-methylpiperidin-1-yl)-2-oxo-1,2-dihydroquinoline-3-carbonitrile] were, in that order, 2 nM, 169 min and 8.2 µL/min/mg. The like results for `COCCOc1ccc2[nH]c(=O)c(C#N)c(N3CCC(C)(OC)CC3)c2c1` [Compound 145, 4-(4-methoxy-4-methylpiperidin-1-yl)-6-(2-methoxyethoxy)-2-oxo-1,2-dihydroquinoline-3-carbonitrile] were, in that order, 12 nM, 128 min and 10.8 µL/min/mg. Regarding `COC1(C)CCN(c2c(C#N)c(=O)[nH]c3ccc(C)cc23)CC1` [Compound 158, 4-(4-methoxy-4-methylpiperidin-1-yl)-6-methyl-2-oxo-1,2-dihydroquinoline-3-carbonitrile], the IC50 (usually the point on the concentration scale where inhibition reaches its midpoint) against PDE9A2 enzyme turned out to be 12 nM. This counts as double-digit nanomolar. On to `COC1(C)CCN(c2c(C#N)c(=O)[nH]c3ccc(C(C)C)cc23)CC1` [Compound 179, 6-isopropyl-4-(4-methoxy-4-methylpiperidin-1-yl)-2-oxo-1,2-dihydroquinoline-3-carbonitrile], for which, on PDE9A2 enzyme, half-maximal inhibition (IC50) required 18 nM. `COC1(C)CCN(c2c(C#N)c(=O)[nH]c3ccc(Br)cc23)CC1` [Compound 180, 6-bromo-4-(4-methoxy-4-methylpiperidin-1-yl)-2-oxo-1,2-dihydroquinoline-3-carbonitrile] showed a concentration for half-maximal inhibition (IC50) at PDE9A2 enzyme of 8 nM. In data set [1], this compound yielded a half-life at 1 μM of 57.3 min and a microsomal CLint at 1 μM of 24.2 µL/min/mg. For `N#Cc1c(N2CCCCCC2)c2ccccc2[nH]c1=O` [Compound I-8, reference compound], in data set [1], the half-life at 1 μM was 47.5 min and the intrinsic metabolic clearance (microsomal CLint) at 1 μM was found to be 29.2 µL/min/mg. As for `CC(C)Cn1c(=O)n(C)c(=O)c2[nH]cnc21` [IBMX], the “inhibitory activity against PDE9” value at human PDE9 [2] is on record as “no inhibitory activity or low inhibitory activity”. In the case of `CC(=O)Nc1ccc(-c2c[nH]c(=O)cn2)cc1` [SKF94120], the “inhibitory activity against PDE9” value at human PDE9 [2] is “no inhibitory activity or low inhibitory activity”.

Turning to `Nc1nc2c(ncn2[C@@H]2O[C@@H]3COP(=O)(O)O[C@H]3[C@H]2O)c(=O)[nH]1` [cGMP, cyclic guanosine monophosphate], at human PDE9 [3], the Km (in general, the substrate concentration at which the rate is half of its maximum) was 170 nM. For the compound `OCCN(CCO)c1nc(N2CCCCC2)c2nc(N(CCO)CCO)nc(N3CCCCC3)c2n1` [dipyridamole], at human PDE9 [2], the “inhibitory activity against PDE9” value is listed as “no inhibitory activity or low inhibitory activity”. For `COc1ccc(C2CNC(=O)C2)cc1OC1CCCC1` (centres unmarked) [rolipram], at human PDE9 [2], the “inhibitory activity against PDE9” value was “no inhibitory activity or low inhibitory activity”. As to `CCOC(=O)C1=C[C@]2(CC)CCCN3CCc4c(n1c1ccccc41)[C@@H]32` [vinpocetine], on human PDE9 [2], the “inhibitory activity against PDE9” value is “no inhibitory activity or low inhibitory activity”.
